Measurements from the NIST ThermoML archive (doi:10.1016/j.jct.2005.12.012).
Where “and” joins values, the source holds several entries; their conditions need not be identical. Equal values may be shown once. ± gives the expanded uncertainty stated by the source.

Conditions: Crystal

[Cl][Fe]([Cl])[Cl] [ferric chloride]
Conditions | vapor or sublimation pressure
383.9 K | 2.16e-05 ± 4.4e-06 kPa
386.3 K | 1.586e-05 ± 3.3e-06 kPa and 2.159e-05 ± 4.4e-06 kPa
389.3 K | 4.466e-05 ± 1e-05 kPa
389.6 K | 3.81e-05 ± 7.8e-06 kPa
389.7 K | 3.88e-05 ± 8e-06 kPa
390.4 K | 3.533e-05 ± 7.1e-06 kPa
392 K | 3.693e-05 ± 7.7e-06 kPa
392.7 K | 6.293e-05 ± 1.4e-05 kPa
393.8 K | 8.506e-05 ± 1.7e-05 kPa
394.2 K | 6.506e-05 ± 1.3e-05 kPa
394.8 K | 9.106e-05 ± 1.8e-05 kPa
394.9 K | 4.68e-05 ± 9.4e-06 kPa and 7.493e-05 ± 1.5e-05 kPa
395.1 K | 5.706e-05 ± 1.3e-05 kPa
395.4 K | 7.039e-05 ± 1.7e-05 kPa
396.6 K | 7.053e-05 ± 1.4e-05 kPa
398 K | 6.426e-05 ± 1.3e-05 kPa
398.6 K | 0.0001123 ± 2.8e-05 kPa
398.9 K | 0.0001423 ± 3.5e-05 kPa
399 K | 0.0001348 ± 2.9e-05 kPa and 0.0001191 ± 2.4e-05 kPa
401.2 K | 0.0001035 ± 2.1e-05 kPa
403 K | 0.0001712 ± 3.5e-05 kPa and 0.0001621 ± 3.5e-05 kPa and 0.0001703 ± 3.5e-05 kPa
403.2 K | 0.0002573 ± 5.2e-05 kPa
403.3 K | 0.0001812 ± 3.8e-05 kPa
404.5 K | 0.0002585 ± 5.2e-05 kPa
404.6 K | 0.000249 ± 5e-05 kPa
407.7 K | 0.0003298 ± 7e-05 kPa
408.6 K | 0.000386 ± 7.7e-05 kPa and 0.0003425 ± 6.8e-05 kPa
409.1 K | 0.000328 ± 6.9e-05 kPa
409.3 K | 0.0003058 ± 6.3e-05 kPa
409.8 K | 0.0004945 ± 0.00012 kPa
409.9 K | 0.0003822 ± 8.1e-05 kPa
412.7 K | 0.0003274 ± 6.6e-05 kPa
413.5 K | 0.0004797 ± 0.00011 kPa
413.9 K | 0.0005921 ± 0.00013 kPa and 0.0007087 ± 0.00015 kPa
414.1 K | 0.0005326 ± 0.00011 kPa
414.6 K | 0.0007097 ± 0.00014 kPa
416.4 K | 0.0004961 ± 0.0001 kPa and 0.0004838 ± 9.9e-05 kPa
418.4 K | 0.001063 ± 0.00043 kPa
419.3 K | 0.0007021 ± 0.00015 kPa and 0.001331 ± 0.00057 kPa
419.4 K | 0.0008229 ± 0.00017 kPa
419.8 K | 0.0006339 ± 0.00016 kPa
419.9 K | 0.0009366 ± 0.00019 kPa
421.9 K | 0.0009899 ± 0.0002 kPa
422.2 K | 0.001008 ± 0.0004 kPa
423.6 K | 0.001647 ± 0.00073 kPa
424 K | 0.00111 ± 0.00045 kPa
424.2 K | 0.001053 ± 0.00043 kPa
424.8 K | 0.001549 ± 0.00068 kPa
424.9 K | 0.001033 ± 0.00042 kPa
425.6 K | 0.001455 ± 0.00063 kPa
426.4 K | 0.001488 ± 0.00065 kPa
426.8 K | 0.001202 ± 0.00052 kPa
428.8 K | 0.001767 ± 0.00091 kPa and 0.001985 ± 0.00097 kPa
429.2 K | 0.002648 ± 0.0014 kPa
430.9 K | 0.002751 ± 0.0013 kPa
431.6 K | 0.001895 ± 0.00087 kPa
434 K | 0.003812 ± 0.002 kPa
434.4 K | 0.003132 ± 0.0016 kPa
434.5 K | 0.004177 ± 0.0022 kPa
439.7 K | 0.006419 ± 0.0036 kPa
445.2 K | 0.008538 ± 0.005 kPa
